How the values were obtained:
[1] = tested on: MMTV-rtTA/tetO-HER2 tumors; experiment: Tumor growth in MMTV-rtTA/tetO-HER2 transgenic mice; type: in vivo, mouse; details: bulky tumors growing prior to treatment; three independent experiments
From the text: Tumor formation was induced in MMTV-rtTA/tetO-HER2 mice with doxycycline as previously described in Goel et al. (2016) Cancer Cell 29:255-269. Female FVB mice (7 weeks of age) were purchased from Taconic Biosciences (Hudson, N.Y.). Female J:NU nude mice (8 weeks of age) were purchased from Jackson Labs (Bar Harbor, Me.). FVB CD45.2+ mice used as a source of T cells for in vitro studies were a kind gift from Dr. Daniel Tenen. For tumor growth studies in J:NU mice, MMTV-rtTA/tetO-HER2 tumor explants were orthotopically implanted bilaterally into nude mice, as previously described in Goel et al. (2016), supra. […] For tumor experiments in transgenic MMTV-rtTA/tetO-HER2 mice, tumors measured between 5 mm and 15 mm when treatment was begun. Mice were assigned into treatment groups so that the distribution of tumor volumes was even between groups. Tumor volume was calculated as previously described in Goel et al. (2016), supra and tumors were measured by caliper 2-3 times per week. For tumor growth curve analysis, one-way ANOVA tests were performed with correction for multiple comparisons using Sidak's multiple comparisons test. […]

[2] = tested on: MMTV-rtTA/tetO-HER2 tumors; experiment: Gene expression (transcriptome, qPCR) in MMTV-rtTA/tetO-HER2 tumor tissue; type: in vivo, mouse
MDA-MB-453 cells = experiment: Expression analysis (transcriptome, qPCR, Western blot, ELISA) in MDA-MB-453 cells treated in vitro; type: cell-based, human; details: SASP gene, abemaciclib 500 nM, 7 days, relative to DMSO
[3] = Plasma autoantibody ELISAs (anti-ANA, anti-dsDNA); type: in vivo, mouse; details: tumor-free and tumor-bearing mice, 12 days
Experimental: For the last 24 hours, the culture media was replaced with serum free media. Following concentration of conditioned media using Amicon® Ultra centrifugal filters (Millipore, Billerica, Mass.), cytokines were analyzed according to the manufacturer's recommendations using the following kits: human IFN gamma ELISA Ready-SET-Go!® (Affymetrix eBioscience), human TNF alpha ELISA Ready-SET-Go!® (Affymetrix eBioscience), Verikine human IFN alpha ELISA kit (PBL assay science, Piscataway, N.J.), VeriKine-HS human IFN beta serum ELISA kit (PBL assay science), human IL-28B quantikine ELISA kit (R&D Systems, Minneapolis, Minn.), human […] Systems), and human IL-29 DuoSet ELISA (R&D Systems). Anti-ANA and anti-dsDNA ELISAs (Alpha Diagnostic, San Antonio, Tex.) were performed according to the manufacturer's instructions on plasma isolated from tumor free or tumor-bearing mice. Absorbance was measured on a SynergyTM Neo plate reader (BioTek, Winooski, Vt.) using Gen5TM software.

thymocytes = experiment: Thymic mass and thymic cell populations in tumor-free FVB mice; type: in vivo, mouse; details: 12 days
Experimental: FIG. 10 includes 9 panels, identified as panels A, B, C, D, E, F, G, H, and I, which show the impact of CDK4/6 inhibition on immune cell populations and Treg biology. […] Panel C compares thymic mass with or without abemaciclib/palbociclib treatment. Thymic cell populations were quantified by flow cytometry.
Following mechanical digestion and RBC lysis, single cell suspensions were blocked with anti-CD16/32 for 20 minutes on ice. Cells were incubated with appropriate antibodies for 30 minutes on ice.
Murine antibodies used for flow cytometry include those recognizing CD45 (clone 30-F11), CD3 (clone 145-2C11), CD8 (clone 53-6.7), CD4 (clone RM4-5), PD-1 (clone 29F.1A12), Tim-3 (clone RMT3-23), CTLA-4 (clone UC10-4B9), LAG-3 (clone C9B7W), B220 (clone RA3-6B2), NK1.1 (clone PK136), CD11b (clone M1/70), Ly6G (clone 1A8), Ly6C (clone AL-21), FoxP3 (clone FJK-16s), and Ki-67 (clone 16A8). Human antibodies used for flow cytometry were those recognizing β2-microglobulin (clone 2M2) and HLA-A, B, C (clone W6/32). Antibodies were purchased from Biolegend with the exception of anti-FoxP3 from eBioscience and anti-Ly6C from BD Pharmigen. All antibodies used for flow cytometry were directly conjugated to fluorophores. […] Flow cytometry was performed on a LSRII (BD Biosciences, San Jose, Calif.) or FACSCANTOII (BD Biosciences), and data was analyzed using FlowJo® (TreeStar).

[4] = tested on: tumor-infiltrating CD8+ and CD4+ T cells; experiment: Inhibitory co-receptor expression on intratumoral T cells (flow cytometry); type: in vivo, mouse
Experimental: Tumors were first mechanically disrupted by chopping, then chemically digested in dissociation buffer (2 mg/mL collagenase type IV (Worthington Biochemical, Lakewood, N.J.), 0.02 mg/mL DNase (Sigma Aldrich) in DMEM (Life Technologies) containing 5% FBS (Life Technologies), PenStrep (Hyclone)) with agitation at 37° C. for 45 minutes. After RBC lysis, single cell suspensions were blocked with anti-CD16/32 for 20 minutes on ice. Then, cells were incubated with the appropriate antibodies for 30 minutes on ice.
Murine antibodies used for flow cytometry include those recognizing CD45 (clone 30-F11), CD3 (clone 145-2C11), CD8 (clone 53-6.7), CD4 (clone RM4-5), PD-1 (clone 29F.1A12), Tim-3 (clone RMT3-23), CTLA-4 (clone UC10-4B9), LAG-3 (clone C9B7W), B220 (clone RA3-6B2), NK1.1 (clone PK136), CD11b (clone M1/70), Ly6G (clone 1A8), Ly6C (clone AL-21), FoxP3 (clone FJK-16s), and Ki-67 (clone 16A8). Human antibodies used for flow cytometry were those recognizing β2-microglobulin (clone 2M2) and HLA-A, B, C (clone W6/32). Antibodies were purchased from Biolegend with the exception of anti-FoxP3 from eBioscience and anti-Ly6C from BD Pharmigen. All antibodies used for flow cytometry were directly conjugated to fluorophores. The anti-mouse/rat FoxP3 staining set (eBioscience) was used for intracellular staining according to the manufacturer's instructions. 7AAD was used to distinguish live/dead cells, except for analyses requiring intracellular staining when eFluor® 450 fixable viability dye (eBioscience) or Zombie Yellow™ fixable viability dye (Biolegend) were used. To determine the absolute number of cells in a sample, CountBright™ absolute counting beads (Molecular Probes, ThermoFisher) were added. Flow cytometry was performed on a LSRII (BD Biosciences, San Jose, Calif.) or FACSCANTOII (BD Biosciences), and data was analyzed using FlowJo® (TreeStar).
Furthermore, the mRNA level of Ifng (the main effector cytokine of cytotoxic T cells) was more than 4-fold higher in treated bulk tumor tissue (FIG. 13D).

[5] = tested on: MMTV-rtTA/tetO-HER2 tumors; experiment: Combined abemaciclib and anti-PD-L1 therapy in MMTV-rtTA/tetO-HER2 tumor bearing mice; type: in vivo, mouse
Experimental: After 3 days, the dose was dropped to 75 mg/kg daily and treatment with an anti-PD-L1 antibody (200 μg by intraperitoneal injection every 72 hours; BioXcell, clone 10F.9G2) or an isotype control antibody (200 μg by intraperitoneal injection every 72 hours) was commenced. Mice were euthanized using CO2 inhalation, and all mouse experiments were performed in accordance with protocols approved by the Institutional Animal Care and Use Committees of Dana-Farber Cancer Institute, Harvard Medical School, and Boston Children's Hospital.

[6] = tested on: MDA-MB-453 and BT474 cells; experiment: Doxorubicin-induced senescence; type: cell-based, human; details: doxorubicin 200 nM 24 h, RNA 72 hours later
Experimental: MDA-MB-453 and BT474 cells were treated with doxorubicin (Sigma Aldrich, 200 nM) for a period of 24 hrs. The cells were then cultured in fresh media for 72 hours after treatment, and RNA was extracted for qPCR.

Structure (SMILES)	average reduction in tumor volume at the 12-day end point [1]	Fold change (abema vs DMSO treatment): COL1A1 ([2]; SASP gene, MMTV-rtTA/tetO-HER2 tumors, abemaciclib 12 days, relative to vehicle)	mRNA level of Ifng in bulk tumor tissue, treated vs vehicle ([2]; qPCR)	Fold change (abema vs DMSO treatment): COL1A1 (MDA-MB-453 cells)	autoimmune phenotype: anti-nuclear antibody (ANA) or anti-dsDNA antibody levels [3]	total thymic mass (thymocytes)	fractions of PD-1high and PD-1+/TIM-3+ cytotoxic T cells ([4]; 6 days treatment vs vehicle)	number of inhibitory receptors detected on any given cytotoxic T cell ([4]; 6 days treatment vs vehicle)	reduction of PD-1+/TIM-3+ cytotoxic T cell fraction ([4]; 6 days treatment vs vehicle)	CD8+ cells expressing none of the inhibitory receptors ([4]; abemaciclib treated tumors, 6 days)	average reduction in tumor volume at day 13 of treatment [5]	beta galactosidase and interleukin-6 expression [6]
CCN1CCN(Cc2ccc(Nc3ncc(F)c(-c4cc(F)c5nc(C)n(C(C)C)c5c4)n3)nc2)CC1 [abemaciclib]	40%	1.207 fold	more than 4 fold	0.752 fold	No associated increases	significantly reduced	significantly reduced	lower	50%	over 50%	35%	
COc1cccc2c1C(=O)c1c(O)c3c(c(O)c1C2=O)C[C@@](O)(C(=O)CO)C[C@@H]3O[C@H]1C[C@H](N)[C@H](O)[C@H](C)O1 [doxorubicin]												increased
CC(=O)c1c(C)c2cnc(Nc3ccc(N4CCNCC4)cn3)nc2n(C2CCCC2)c1=O [palbociclib]						significantly reduced						

Source: US20200108066A1, “METHODS FOR MODULATING REGULATORY T CELLS AND IMMUNE RESPONSES USING CDK4/6 INHIBITORS” (Dana-Farber Cancer Institute, Inc., priority 2017, published 2020)
